Test results as given in patent US6576639B1, “Compounds for the inhibition of farnesyl protein transferase” (Schering Corporation, priority 1997, dated 2003).

Tests used:
[1] = biological target: farnesyl protein transferase (Homo sapiens, UniProt P49354+P49356); assay: FPT IC50 (inhibition of farnesyl protein transferase, in vitro enzyme assay, per WO 95/10516); type: biochemical; conditions: for IC50: in vitro enzyme assay
Protocol: (§1) FPT IC50 (inhibition of farnesyl protein transferase, in vitro enzyme assay) was determined following the assay procedures described in WO 95/10516, published Apr. 20, 1995. GGPT IC50 (inhibition of geranylgeranyl protein transferase, in vitro enzyme assay), COS Cell IC50 (Cell-Based Assay), Cell Mat Assay, and anti-tumor activity (in vivo anti-tumor studies) could be determined by the assay procedures described in WO 95/10516. The disclosure of WO 95/10516 is incorporated herein by reference thereto.

[2] = system: Human tumor cells; assay: Soft Agar Assay (anchorage-independent growth); type: cell-based
Protocol: Anchorage-independent growth is a characteristic of tumorigenic cell lines. Human tumor cells can be suspended in growth medium containing 0.3% agarose and an indicated concentration of a farnesyl transferase inhibitor. The solution can be overlayed onto growth medium solidified with 0.6% agarose containing the same concentration of farnesyl transferase inhibitor as the top layer. After the top layer is solidified, plates can be incubated for 10-16 days at 37° C. under 5% CO2 to allow colony outgrowth. After incubation, the colonies can be stained by overlaying the agar with a solution of MTT (3-[4,5-dimethyl-thiazol-2-yl]-2,5-diphenyltetrazolium bromide, Thiazolyl blue) (1 mg/mL in PBS). Colonies can be counted and the IC50's can be determined.

[3] = system: COS Cell; assay: COS Cell IC50 (Cell-Based Assay, per WO 95/10516)
Protocol: as §1

[4] = biological target: T1, human FPT (Homo sapiens, UniProt P49354+P49356); assay: FPT pM IC50 Assay; type: biochemical; conditions: 30 pM human FPT, biotin-CVLS substrate, 37° C., 1 hour
T1 construct: made in house; host or cells: Baculovirus/Sf-9
Protocol: The enzymatic reaction is performed in 50 mM Tris, 5 μM ZnCl2, 5 mM MgCl2, 0.01% Triton X-100, 5 mM dithiolthreitol (DTT), pH 7.7 (Buffer R) at 37° C. for 1 hour. The purified human FPT (>95% pure) was derived from a Baculovirus/Sf-9 expression system. The peptide substrate used was biotin-CVLS (SynPep Corp., Dublin, Calif.) and (1-^3H)-FPP (21.5 Ci/mmol) was obtained from New England Nuclear Life Science Products (Boston, Mass.). Compounds were initially dissolved to a final concentration of 4 mg/ml in 100% DMSO and then to 0.25 μg/ml in 100% DMSO. Subsequent dilutions of the compound were performed in Buffer R.
The enzymatic reaction is performed in a final volume of 100 μl. Reactions are carried out in a 96 well plate format. […] The reaction is stopped using 150 μl of the Stop Solution consisting of 1.3 mg/ml scintillation beads (strepavidin-coated scintillation proximity beads from Amersham (Arlington Heights, Ill.), 250 mM EDTA, pH 8.0 and 0.5% BSA. The radioactivity is measured after 20 minutes at room temperature.
Compounds are evaluated for their ability to inhibit the reaction by measuring the concentration-dependent percent inhibition of the reaction. […] The enzymatic activity was recorded by measuring the CPM/well using a Wallac 1204 Betaplate BS liquid scintillation counter. […]

Chain of farnesyl protein transferase (P49356 whole entry, one chain of several): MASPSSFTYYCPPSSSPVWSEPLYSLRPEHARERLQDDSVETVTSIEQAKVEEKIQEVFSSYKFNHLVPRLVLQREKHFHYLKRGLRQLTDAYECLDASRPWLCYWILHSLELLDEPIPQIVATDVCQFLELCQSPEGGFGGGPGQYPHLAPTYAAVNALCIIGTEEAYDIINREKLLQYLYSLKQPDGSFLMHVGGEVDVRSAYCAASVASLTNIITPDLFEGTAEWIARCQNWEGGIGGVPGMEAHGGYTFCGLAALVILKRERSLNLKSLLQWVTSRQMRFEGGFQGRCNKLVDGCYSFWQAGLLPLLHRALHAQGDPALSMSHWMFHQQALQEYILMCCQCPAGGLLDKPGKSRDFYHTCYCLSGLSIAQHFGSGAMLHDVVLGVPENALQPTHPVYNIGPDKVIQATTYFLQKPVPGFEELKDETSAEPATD

In the case of `O=C(Cc1cc[n+]([O-])cc1)N1CCC([C@@H]2c3ccc(Cl)cc3C=Cc3cc(Br)c[n+]([O-])c32)CC1` [Example 15], the IC50 [1] is reported as 19 nM and the melting point is reported as 125.5 to 126.3 °C.

With `NC(=O)N1CCC(CC(=O)N2CCC([C@H]3c4ccc(Cl)cc4CCc4cc(Br)c[n+]([O-])c43)CC2)CC1` [Example 13] the IC50 [1] was 174 nM and the melting point was 120 to 121 °C.

Compound `O=C(Cc1cc[n+]([O-])cc1)N1CCN([C@H]2c3ccc(Cl)cc3CCc3cc(Br)c[n+]([O-])c32)CC1` [Example 8] has an FPT percent inhibition ([1]; @ 170 (concentration unit not given)) of 39% @ 170.

Work on `O=C(Cc1cc[n+]([O-])cc1)N1CCC(C2c3ccc(Cl)cc3C=Cc3cc(Br)c[n+]([O-])c32)CC1` (centres unmarked) [Example 6, 4-(3-Bromo-8-Chloro-11H-Benzo[5.6]Cyclohepta[1,2-b]Pyridi-11-yl) -1-(4-Pyridinylacetyl)Piperidine N1-Oxide, N4-Oxide] yielded an IC50 [1] of 63 nM.

Work on `O=C(Cc1cc[n+]([O-])cc1)N1CCC([C@H]2c3ccc(Cl)cc3C=Cc3cc(Br)c[n+]([O-])c32)CC1` [Example 14] yielded an FPT percent inhibition ([1]; @ 180 (concentration unit not given)) of 25% @ 180 and a melting point of 109 to 110 °C.

`NC(=O)N1CCC(CC(=O)N2CCC(C3c4c(Br)cc(Cl)cc4CCc4cc(Br)c[n+]([O-])c43)CC2)CC1` (centres unmarked) [Compound 54.0] gave an FPT percent inhibition ([1]; @150 nM) of 42%.

Work on `O=C(Cc1cc[n+]([O-])cc1)N1CCC([C@H]2c3ccc(Cl)c(Br)c3CCc3cc(Br)c[n+]([O-])c32)CC1` [Example 5, (−)-4-(8-Chloro-3,7-Dibromo-6,11-Dihydro-5H-Benzo[5,6]Cyclohepta [1,2-b]Pyridin-11-yl)-1-(4-Pyridinylacetyl)Piperidine N1-Oxide, N4-Oxide] yielded an IC50 [1] of 28 nM.

In the case of `O=C(Cc1cc[n+]([O-])cc1)N1CCC([C@@H]2c3c(Br)cc(Cl)cc3CCc3cc(Br)c[n+]([O-])c32)CC1` [Example 3], the IC50 [1] is reported as 0.7 nM, the IC50 [2] is reported as 25 nM and the IC50 [3] is reported as 11.5 nM.

Compound `NC(=O)N1CCC(CC(=O)N2CCC([C@H]3c4ccc(Cl)c(Br)c4CCc4cc(Br)c[n+]([O-])c43)CC2)CC1` [Example 4] has an IC50 [1] of 18 nM.

Compound `NC(=O)N1CCC(CC(=O)N2CCC([C@@H]3c4ccc(Cl)cc4CCc4cc(Br)c[n+]([O-])c43)CC2)CC1` [Example 12] has an IC50 [1] of 35 nM and a melting point of 146.8 to 147.4 °C.

`NC(=O)N1CCC(CC(=O)N2CCN(C3c4ccc(Cl)cc4CCc4cc(Br)c[n+]([O-])c43)CC2)CC1` (racemic) [Example 9, (±) 4-[2-[(3-Bromo-8-chloro-6,11-dihydro-5H-benzo[5,6]cyclohepta [1,2-b]pyridin-11-yl)-1-piperazinyl]-2-oxoethyl]-1-piperidinecarboxamide N1-oxide] showed an IC50 [1] of 23 nM.

`NC(=O)N1CCC(CC(=O)N2CCN([C@@H]3c4ccc(Cl)cc4CCc4cc(Br)c[n+]([O-])c43)CC2)CC1` [Example 10, (+) 4-[2-[(3-Bromo-8-chloro-6,11-dihydro-5H-benzo[5,6]cyclo-hepta [1,2-b]pyridin-11R-yl)-1-piperazinyl]-2-oxoethyl]-1-piperidinecarboxamide N1-oxide] gave an IC50 [1] of 12 nM.

Work on `NC(=O)N1CCC(CC(=O)N2CCC([C@@H]3c4c(Br)cc(Cl)cc4CCc4cc(Br)c[n+]([O-])c43)CC2)CC1` [Example 2, (+)-4-[2-[4-(3,10-Dibromo-8-chloro-6,11-dihydro-5H-benzo [5,6]cyclohepta[1,2-b]pyridin-11(R)-YL)-1-piperidinyl]-2-oxoethyl]-1-piperidinecarboxamide N-oxide] yielded an IC50 [1] of 1.4 nM, an IC50 [2] of 45 nM and an IC50 [3] of 9 nM.

Compound `O=C(Cc1cc[n+]([O-])cc1)N1CCN([C@@H]2c3ccc(Cl)cc3CCc3cc(Br)c[n+]([O-])c32)CC1` [Example 7] has an IC50 [4] of 440 pM, an IC50 [1] of 6.3 nM and an IC50 [2] of 183 nM. The IC50 [3] was 85 nM.

`NC(=O)N1CCC(CC(=O)N2CCN([C@H]3c4ccc(Cl)cc4CCc4cc(Br)c[n+]([O-])c43)CC2)CC1` [Example 11, (−) 4-[2-[(3-Bromo-8-chloro-6,11-dihydro-5H-benzo[5,6]cyclo-hepta [1,2-b]pyridin-11S-yl)-1-piperazinyl]-2-oxoethyl]-1-piperidinecarboxamide N1-oxide] gave an FPT percent inhibition ([1]; @ 160 (concentration unit not given)) of 24% @ 160.
